melting point	SMILES
173.5 °C	N#C[C@@H]1CS[C@@H]2C[C@@H](N)C(=O)N12.O=C(O)C(F)(F)F
209 °C	N#C[C@@H]1CS[C@H]2C[C@](N)(Cc3ccccc3)C(=O)N12.O=C(O)C(F)(F)F
